Experimental data reported in patent publication US20120165309A1, “HETERO RING DERIVATIVE” (Astellas Pharma Inc., priority 2009, published 2012).
Where a name gives a salt, the structure may show the parent alone.

Columns and labels:
human PI3Kδ enzyme = target: T1, human PI3Kδ enzyme (Homo sapiens, UniProt O00329); experiment: PI3Kδ enzyme inhibitory activity (PI3-Kinase HTRF Assay kit); type: biochemical; details: human PI3Kδ 10 ng/well, ATP 30 μM, PIP2 10 μM, room temperature 30 minutes
T1 construct: purchased Millipore Corporation 14-604
Method in brief: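 Human PI3Kδ (10 ng/well) with phosphatidylinositol-4,5-bisphosphate (10 μM), ATP (30 μM) and compound, 30 min at room temperature; stopped with EDTA/biotin-PIP3. HTRF read after overnight detection (Eu anti-GST, GST-GRP1 PH, streptavidin-APC).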

[1] = test system: Spleen cells (B cell proliferation); experiment: Rat B cell proliferation inhibition test (anti-rat IgM, [3H]thymidine); type: cell-based; details: anti-rat IgM 3 μg/well, 48 hours culture, [3H]thymidine uptake
Protocol: 4. Rat B Cell Proliferation Inhibition Test
Spleen cells (1.0×10^5 cells/well) prepared from male LEW/CrlCrlj rats (Charles River Laboratories, Japan, Inc.), mouse F(ab′)2 fragment anti-rat IgM (3 μg/well, SouthernBiotech Associates, Inc., Catalogue No. 3082-14) and the test compound dissolved in DMSO (final DMSO concentration 0.1%) were mixed in a 96-well plate using a 10% FCS-containing RPMI-1640 culture medium (total 200 μL). They were cultured in a CO2 incubator for 48 hours and [^3H]thymidine (925 GBq/mmol, Moravek Biochemicals, Inc., Catalogue No. MT6038) was added thereto at 0.037 MBq/well at 4 hours before completion of culture. Cells were harvested in a GF/C glass filter using a cell harvester, and a radioactivity on the filter was measured using a liquid scintillation counter. The IC50 value of the compound was calculated, taking the dpm (disintegration per minute) without addition of IgM as an inhibition rate of 100% and the dpm without addition of the test compound as an inhibition rate of 0%, by a logistic method.

IL-2 production = experiment: Rat in vivo IL-2 production inhibition test (Concanavalin A induced); details: po, male LEW/CrlCrlj rats, 10 mg/kg orally, 2 hours before Concanavalin A 15 mg/kg i.v., blood IL-2 at 3 hours after Concanavalin A, read-out: IL-2 production inhibition activity (inhibition rate vs vehicle control)
Protocol: 3. Rat In vivo IL-2 Production Inhibition Test
For the experiment, male LEW/CrlCrlj rats (Charles River Laboratories, Japan, Inc.) (6-week old, body weight 130 to 180 g) were used. The test compound was suspended in a 0.5% methyl cellulose solution and orally administered at 5 mL/kg. IL-2 production was induced by tail vein injection of Concanavalin A (Funakoshi Corporation, Catalogue No. L-1000) at a dose of 15 mg/kg.
The test was carried out according to the protocol shown below. At 2 hours or 16 hours before administration of Concanavalin A, the test compound was orally administered to rats. At 3 hours after administration of Concanavalin A, blood was collected. The IL-2 concentration in blood was quantified using an ELISA kit (R&D Systems, Inc., Catalogue No. DY502E). An inhibition rate was calculated from the amount of IL-2 produced in a group administered with the test compound with respect to the amount of the IL-2 produced of a control group administered with a vehicle.

Human PI3Kα = target: T2, Human PI3Kα (Homo sapiens, UniProt P42336); experiment: PI3Kα enzyme inhibitory activity (Kinase-Glo Plus luminescence); type: biochemical; details: Human PI3Kα 12 ng/well, phosphatidylinositol 0.2 μg/well, 37° C. for 3 hours
T2 construct: purchased Millipore Corporation 14-602
T2 sequence (P42336 whole entry): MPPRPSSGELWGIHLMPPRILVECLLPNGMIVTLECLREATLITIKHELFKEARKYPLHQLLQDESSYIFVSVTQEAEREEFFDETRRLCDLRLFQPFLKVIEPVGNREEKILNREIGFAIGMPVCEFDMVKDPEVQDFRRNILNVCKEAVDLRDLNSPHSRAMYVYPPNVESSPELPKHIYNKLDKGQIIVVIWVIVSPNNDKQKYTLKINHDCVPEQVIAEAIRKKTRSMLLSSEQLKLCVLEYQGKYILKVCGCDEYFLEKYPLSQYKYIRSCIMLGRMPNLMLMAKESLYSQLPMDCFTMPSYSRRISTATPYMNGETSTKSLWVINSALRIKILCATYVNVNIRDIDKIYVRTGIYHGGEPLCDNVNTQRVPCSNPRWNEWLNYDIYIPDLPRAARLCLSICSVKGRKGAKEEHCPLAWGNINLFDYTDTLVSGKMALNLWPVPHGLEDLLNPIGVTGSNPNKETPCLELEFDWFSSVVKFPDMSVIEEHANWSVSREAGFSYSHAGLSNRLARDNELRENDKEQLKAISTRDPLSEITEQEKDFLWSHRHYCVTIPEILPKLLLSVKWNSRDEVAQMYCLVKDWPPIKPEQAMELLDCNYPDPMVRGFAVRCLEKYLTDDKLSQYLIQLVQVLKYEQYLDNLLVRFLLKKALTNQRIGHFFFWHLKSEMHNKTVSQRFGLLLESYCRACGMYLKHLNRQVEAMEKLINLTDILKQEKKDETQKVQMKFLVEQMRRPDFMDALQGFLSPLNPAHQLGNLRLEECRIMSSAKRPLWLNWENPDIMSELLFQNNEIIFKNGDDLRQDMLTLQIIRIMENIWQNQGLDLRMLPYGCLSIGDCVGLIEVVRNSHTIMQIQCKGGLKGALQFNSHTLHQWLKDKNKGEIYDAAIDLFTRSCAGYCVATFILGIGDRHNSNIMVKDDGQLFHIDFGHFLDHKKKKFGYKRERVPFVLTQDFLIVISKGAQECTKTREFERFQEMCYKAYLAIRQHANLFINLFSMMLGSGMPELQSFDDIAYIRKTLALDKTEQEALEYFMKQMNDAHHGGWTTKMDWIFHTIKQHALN
T2 sequence (P27986 whole entry partner): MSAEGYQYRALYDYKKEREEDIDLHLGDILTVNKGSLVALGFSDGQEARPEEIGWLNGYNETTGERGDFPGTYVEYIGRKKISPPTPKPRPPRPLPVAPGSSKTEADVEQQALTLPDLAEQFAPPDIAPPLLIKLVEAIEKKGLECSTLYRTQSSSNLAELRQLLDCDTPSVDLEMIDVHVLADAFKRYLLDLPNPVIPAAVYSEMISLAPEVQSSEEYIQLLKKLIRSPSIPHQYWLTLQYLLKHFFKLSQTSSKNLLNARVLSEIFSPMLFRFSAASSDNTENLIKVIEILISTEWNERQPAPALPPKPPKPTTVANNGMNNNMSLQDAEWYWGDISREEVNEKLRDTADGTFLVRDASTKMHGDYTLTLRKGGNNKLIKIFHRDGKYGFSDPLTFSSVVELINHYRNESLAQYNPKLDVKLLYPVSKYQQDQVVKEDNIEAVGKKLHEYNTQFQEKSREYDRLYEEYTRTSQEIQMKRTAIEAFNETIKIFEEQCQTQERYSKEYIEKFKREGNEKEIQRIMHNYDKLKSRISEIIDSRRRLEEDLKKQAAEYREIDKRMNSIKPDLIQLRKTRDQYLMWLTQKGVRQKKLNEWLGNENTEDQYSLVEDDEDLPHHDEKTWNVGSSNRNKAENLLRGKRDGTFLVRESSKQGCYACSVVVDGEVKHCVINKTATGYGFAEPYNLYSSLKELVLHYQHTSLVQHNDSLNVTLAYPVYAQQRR

T1 sequence (O00329 whole entry): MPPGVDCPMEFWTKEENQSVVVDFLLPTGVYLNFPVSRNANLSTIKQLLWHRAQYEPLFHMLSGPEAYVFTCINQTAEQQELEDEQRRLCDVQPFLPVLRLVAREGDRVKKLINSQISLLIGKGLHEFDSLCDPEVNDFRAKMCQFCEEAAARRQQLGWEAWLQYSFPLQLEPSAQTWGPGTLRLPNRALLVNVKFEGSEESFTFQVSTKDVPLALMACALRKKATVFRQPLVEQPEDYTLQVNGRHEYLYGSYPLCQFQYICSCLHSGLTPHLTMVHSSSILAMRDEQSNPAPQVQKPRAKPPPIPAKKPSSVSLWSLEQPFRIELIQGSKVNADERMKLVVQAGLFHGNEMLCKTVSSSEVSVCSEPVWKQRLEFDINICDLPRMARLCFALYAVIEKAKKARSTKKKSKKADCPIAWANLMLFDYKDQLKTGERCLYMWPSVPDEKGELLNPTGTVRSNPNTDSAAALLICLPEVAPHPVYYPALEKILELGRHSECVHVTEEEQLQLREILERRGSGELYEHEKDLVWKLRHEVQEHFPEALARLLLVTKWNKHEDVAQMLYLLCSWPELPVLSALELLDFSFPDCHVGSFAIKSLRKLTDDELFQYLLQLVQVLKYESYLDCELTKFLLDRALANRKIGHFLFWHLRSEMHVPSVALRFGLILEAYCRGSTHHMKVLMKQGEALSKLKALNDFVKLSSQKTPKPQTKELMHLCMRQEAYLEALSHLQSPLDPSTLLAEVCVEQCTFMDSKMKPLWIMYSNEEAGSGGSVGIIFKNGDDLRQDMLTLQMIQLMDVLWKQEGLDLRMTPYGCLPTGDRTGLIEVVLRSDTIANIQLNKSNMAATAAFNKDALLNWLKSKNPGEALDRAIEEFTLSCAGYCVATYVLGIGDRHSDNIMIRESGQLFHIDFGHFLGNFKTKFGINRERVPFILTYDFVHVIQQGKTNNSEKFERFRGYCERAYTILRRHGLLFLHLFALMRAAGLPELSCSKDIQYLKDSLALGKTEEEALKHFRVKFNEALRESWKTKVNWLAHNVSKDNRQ
T1 sequence (P27986 whole entry partner): as the sequence (P27986 whole entry partner) above

Structure (SMILES) | IC50 (human PI3Kδ enzyme) [nM] | IC50 (Human PI3Kα) [nM] | IC50 [1] [nM] | inhibition in vivo at 10 mg/kg (IL-2 production) [%]
FC(F)c1nc2ccccc2n1-c1cc(N2CCOCC2)nc(NC[C@H]2CC[C@H](N3CCOCC3)CC2)n1 [Example 201] |  |  |  | 76
CC(=O)N[C@H]1CC[C@H](Nc2nc(N3CCOCC3)cc(-n3c(C(F)F)nc4ccccc43)n2)CC1 [Example 194] |  |  |  | 89
CN(C)CC(=O)N[C@H]1CC[C@H](Nc2nc(N3CCOCC3)nc(-n3c(C(F)F)nc4ccccc43)n2)CC1 [Example 40] |  | 1200 |  | 94
O=C1CCCN1[C@H]1CC[C@H](Nc2nc(N3CCOCC3)cc(-n3c(C(F)F)nc4ccccc43)n2)CC1 [Example 11, 1-[trans-4-({4-[2-(difluoromethyl)-1H-benzimidazol-1-yl]-6-morpholin-4-ylpyrimidin-2-yl}amino)cyclohexyl]pyrrolidin-2-one] | 14 | 930 | 6.1 | 80
CN(C)[C@H]1CC[C@H](Nc2nc(N3CCOCC3)nc(-n3c(C(F)F)nc4ccccc43)n2)CC1 [Example 4, trans-N′-{4-[2-(difluoromethyl)-1H-benzimidazol-1-yl]-6-morpholin-4-yl-1,3,5-triazin-2-yl}-N,N-dimethylcyclohexane-1,4-diamine] | 33 | 2000 | 1.8 | 83
FC(F)c1nc2ccccc2n1-c1cc(N2CCOCC2)nc(NC[C@H]2CC[C@H](N3CCCCC3)CC2)n1 [Example 202] |  |  |  | 80
CN(C)CC(=O)N[C@H]1CC[C@H](Oc2cc(-n3c(C(F)F)nc4ccccc43)nc(N3CCOCC3)n2)CC1 [Example 24, N-[trans-4-({6-[2-(difluoromethyl)-1H-benzimidazol-1-yl]-2-morpholin-4-ylpyrimidin-4-yl}oxy)cyclohexyl]-N,N-dimethylglycinamide hydrochloride] | 5.2 | > 3000 | 4.2 | 79

Second part, led by results:

IC50 (human PI3Kδ enzyme) [nM] | IC50 (Human PI3Kα) [nM] | Structure (SMILES) | IC50 [1] [nM] | inhibition in vivo at 10 mg/kg (IL-2 production) [%]
4.4 | 3300 | CN(CCF)[C@H]1CC[C@H](CNc2nc(N3CCOCC3)cc(-n3c(C(F)F)nc4ccccc43)n2)CC1 [Example 206] | 4.1 | 83
44 | > 3000 | CN(C)CC(=O)N[C@H]1CC[C@H](Nc2cc(-n3c(C(F)F)nc4ccccc43)nc(N3CCOCC3)n2)CC1 [Example 46] | 5.2 | 71
14 | 6000 | COCCN(C)[C@H]1CC[C@H](CNc2nc(N3CCOCC3)cc(-n3c(C(F)F)nc4ccccc43)n2)CC1 [Example 219] | 3.5 | 78
